We go through 4 compounds from publication PMC7459852, “Identification of 6-(piperazin-1-yl)-1,3,5-triazine as a chemical scaffold with broad anti-schistosomal activities” (Wellcome Open Research, 2020).

Where two headings read alike, the source gives them in different places.

Data set [1] in a line: MTT cytotoxicity assay on HepG2 cells. The class given is cell-based, Human. The note with it: human, HepG2 cells, MTT, 24 h; three dose response titrations (200 - 1 µM). As to the method:
(§1) Compound cytotoxicity on Human Hepatocyte Carcinoma (HepG2) cells (85011430, Sigma Aldrich) was elucidated by the MTT (3-(4,5-dimethylthiazol-2-yl)-2,5-diphenyltetrazolium bromide) tetrazolium reduction assay as previously described, [28], [50]. Briefly, HepG2 cells were seeded at a density of 20,000 per well in 96-well black, clear bottom falcon plate in modified BME medium (50 μl; containing 1% antibiotic/mycotic (Sigma-Aldrich, Gillingham, UK), 1% 200 mM L-glutammine (Gibco, Paisley, UK), 1% MEM non-essential amino acid solution (Gibco, Paisley, UK), and 10% fetal bovine serum (Gibco, Paisley, UK)). HepG2 plates seeded for cytotoxicity screens were treated with compounds 24 h post-seeding. Each compound was tested at 200, 100, 75, 50, 20, 10 and 1 µM; each concentration was assayed in triplicate. Blank wells (no cells), as well as positive (1% v/v Triton X-100, X100, Sigma-Aldrich) and negative (1.25% v/v DMSO or media only) controls, were included in each plate. After addition of compounds, each plate was then incubated for a further 20 h before application of MTT reagent for assessment of compound cytotoxicity (4 h incubation with MTT for a total 24 h cell-drug incubation). The absorbance reading at 570 nm was measured with a POLARstar Omega (BMG Labtech, UK) microtiter plate reader. Dose response curves were generated in GraphPad Prism 7.02 based on the corrected average absorbance of the three replicates for each concentration point.
(In general: Tetrazolium dyes change colour on reduction, which living cells bring about.)

In data set [2] the test system is HepG2 cells. In words: MTT cytotoxicity assay on HepG2 cells. The class given is cell-based, Human. The note with it: for cytotoxicity on HepG2 cells (in words): dose response titration. As to the method: as §1
In data set [3] the test system is S. mansoni miracidia. In words: Miracidia to sporocyst transformation screens. It counts as cell-based, Schistosoma mansoni. The note with it: 10 µM, 48 h. As to the method:
Following hatching of S. mansoni eggs, miracidia were incubated on ice for 15 min and then centrifuged at 700 x g for 5 min at 4°C. The miracidia pellet was then re-suspended in 5 ml of Chernin's balanced salt solution (CBSS), subjected to pelleting and two subsequent washes (all at 700 x g for 5 min at 4°C). Afterwards, the supernatant was carefully removed with a serological pipette and the miracidia-enriched pellet was resuspended with CBSS supplemented with 1 mg/ml each of glucose and trehalose and 500 µl of Penicillin-Streptomycin (containing 10,000 units penicillin and 10 mg streptomycin/ml, P4333, Sigma-Aldrich). In preparation for the screens, CBSS (250 µl) was aliquoted to each well of a 24-well plate followed by addition of each compound in DMSO (1 mM concentration in 1% DMSO) or DMSO alone (1%, negative control). Next, approximately 20-25 miracidia (in 250 µl of CBSS) were aliquoted to each well. […] Both preliminary and secondary screens were performed in duplicate on two separate occasions (two independent biological replicates). Miracidia were incubated for 48 h at 26°C before being evaluated using an Olympus inverted light microscope for morphological and behavioural changes differing from the control wells. Dead, partially transformed and fully transformed miracidia were enumerated in the DMSO control and the assay plates as previously described, [23], [59]. […] Absence of ciliated plates attached to the surface of the parasite and formation of sporocyst tegument defined the so-called “fully transformed” parasites.

Data set [4] deals with S. mansoni schistosomula. In words: Schistosomula screens (Roboworm, phenotype and motility). The class given is cell-based, Schistosoma mansoni. The note with it: 72 h; for anti-schistosomula activity (hit on phenotype and motility): 50 µM; for EC50: Schistosoma mansoni, dose response titrations (10 - 0.625 µM). As to the method: Anthelmintic activity on the schistosomula stage of S. mansoni was evaluated using Roboworm, an integrated high-throughput, high content image analysis platform originally developed by Paveley et al. and subsequently used by our research group as previously described, [28], [50], [51]. Alternatively, the computer application Worminator can be used to assess motion of microscopic parasites such as the schistosomula stage of S. mansoni. Compounds (as single concentration or two-fold titrations) were prepared for screening in a 384-well plate (PerkinElmer, MA, USA), where solutions (1.6 mM, 0.5 μl) were wet stamped using the Biomek NX ^P liquid handling platform into Basch medium (20 μl). Negative (0.625% DMSO) and positive (Auranofin - AUR - at 10 µM final concentration in 0.625% DMSO) control wells were similarly prepared. Mechanically transformed schistosomula (about 120 parasites in 60 μl of Basch medium) were distributed into each treated well using a WellMate (Thermo Scientific, Loughborough, UK). Schistosomula/compound co-cultures were then incubated at 37°C for 72 h in a humidified atmosphere containing 5% CO 2. At 72 h, parasite/compound co-cultures were resuspended and tissue culture plates were imaged under the same conditions (37°C for 72 h in a humidified atmosphere containing 5% CO 2) using an ImageXpressXL high content imager (Molecular Devices, UK) with subsequent images processed for phenotype and motility as previously reported. Plate analysis returned a phenotype and motility score for each well and any scores below -0.15 and -0.35 (defined threshold anti-schistosomula values for phenotype and motility scores, respectively) defined a condition displaying anti-schistosomula activity. Compound screens were assessed based on the Z´ values (derived from the means and standard deviations of positive and negative controls) and those equal to or above 0.3 for both phenotype and motility were considered successful.
Phenotype and motility scores of each titration were used to generate dose response curves in GraphPad Prism 7.02 based on the corrected average score of the three replicates for each data point.

Data set [5] has as its system S. mansoni adult worms. In words: Adult worm screens (WormassayGP2 motility, egg count). It counts as cell-based, Schistosoma mansoni. The note with it: 72 h; for adult worm motility and oviposition: 6.25 µM, compared to compound 7; for adult worm egg production / adult worm motility compared to compound 7: 12.5 µM. As to the method: For compound screening, adult worms (three worm pairs/well for compound 7 and the hit compounds of set two; one worm pair/well for the hit compounds of set three) were transferred into wells of a 48-well tissue culture plate containing 1 ml of adult worm media. Adult worms were treated with compounds previously identified as hits at 10 µM on 72 h cultured schistosomula. Worms were dosed with an appropriate volume of 10 mM stock solution of each compound (in DMSO) to have a concentration range of 50 – 6.25 µM (up to 0.5% DMSO, primary screen of compound 7). Secondary screens were performed on the structural analogues of compound 7 (only the schistosomula hits at 10 µM) at a single concentration (12.5 µM) and compared to the same concentration of the parental compound (included in the screen as reference). DMSO (0.5%) and praziquantel (10 µM in 0.5% DMSO) were also included as negative and positive control treatments (both primary and secondary screens). Treated adult worms were incubated for 72 h in a humidified environment at 5% CO 2 at 37°C. Parasite motility after drug treatment was assessed by a digital image processing-based system (WormassayGP2, see Software availability) modified after Wormassay, [56], [57]. Egg production was assessed according to the methodology described by Edwards et al..

In data set [6] the test system is Schistosoma mansoni. On the set-up: method as in PMID 24037106. The note with it: cited from earlier work.
For data set [7], the system named is Schistosoma mansoni. On the set-up: method as in PMID 24037106. The note with it: cited from earlier work. This is another data set of the same source.
The mark [8] stands for this setting: read-out: Schistosomula EC50 Motility.
[9] abbreviates: read-out: Schistosomula EC50 Phenotype.

In general, CC50 refers to the concentration that lowers cell viability or growth by half. In general, EC50 refers to the concentration giving half of the maximal effect. `CC(=O)Nc1ccc(S(=O)(=O)N2CCN(c3nc(N4CCCCC4)nc(N4CCCCC4)n3)CC2)cc1` [Compound 20] returned a CC50 at 24 h in data set [1] of over 100 µM. The “cytotoxicity on HepG2 cells (in words)” value in data set [2] is on record as “not toxic to this cell line, except for concentrations above 100 µM”. In addition, the effect on miracidia result in data set [3] is “readily killed miracidia”. Also, the “anti-schistosomula activity (hit on phenotype and motility)” value (from here on “anti-schistosomula activity”) in data set [4] is listed as “active at the highest concentration”. For the same compound, in data set [4] (setting [8]), the EC50 amounted to 4.93 µM. The EC50 in data set [4] (setting [9]) came out at 3.47 µM. For the same compound, in data set [5], the “adult worm motility and oviposition” value was “strong anthelmintic activities”; the “adult worm egg production” value is recorded as “greater potency than compound 7”; the “adult worm motility compared to compound 7” value is listed as “greater potency than compound 7”.
For the compound `Cc1ccc(Nc2nc(C3CCCCC3)nc(N3CCNCC3)n2)cc1` [Compound 23], the CC50 at 24 h in data set [1] was under 10 µM. In addition, the CC50 in data set [2] (MTT, 24 h, three dose response titrations (200 - 1 µM)) is 6.73 µM. Further, the “cytotoxicity on HepG2 cells (in words)” value in data set [2] is given as “showed the highest toxicity”. Besides, in data set [3], the effect on miracidia entry is “readily killed miracidia”. Besides, the “anti-schistosomula activity” value in data set [4] is given as “active at the highest concentration”. For the same compound, in data set [4] (setting [8]), the EC50 turned out to be 2.79 µM. The concentration for a half-maximal effect (EC50) in data set [4] (setting [9]) was determined as 3.06 µM. Also, in data set [5], the “adult worm motility and oviposition” value is “strong anthelmintic activities”; the “adult worm egg production” value is on record as “greater potency than compound 7”; the “adult worm motility compared to compound 7” value is recorded as “greater potency than compound 7”.
As for `Cc1ccc(Nc2nc(N3CCNCC3)nc(N3CCN(c4ccccc4)CC3)n2)cc1` [Compound 24], in data set [2], the “cytotoxicity on HepG2 cells (in words)” value is “showed the highest toxicity”. For the same compound, the effect on miracidia result in data set [3] is “readily killed miracidia”. Besides, the “anti-schistosomula activity” value in data set [4] is “active at the highest concentration”. In addition, the EC50 in data set [4] (setting [8]) is 1.81 µM. In addition, the EC50 in data set [4] (setting [9]) was found to be 1.57 µM. In data set [5], the “adult worm motility and oviposition” value is recorded as “the most potent”; the “adult worm egg production” value is listed as “greater potency than compound 7”; the “adult worm motility compared to compound 7” value was “greater potency than compound 7”.
As to `Cc1ccc(NC(=O)c2ccc(CN3CCN(C)CC3)cc2)cc1Nc1nccc(-c2cccnc2)n1` [Imatinib], in data set [6], the “in vivo anti-schistosomal activity” value is reported as “lost in vivo”. In addition, in data set [7], the “in vitro anti-schistosomal activity” value was “potent in vitro anti-schistosomal activity”.
